Data on 25 molecules can be found in US12109207B2, “Methods of using 4(1H)-quinolone derivatives” (Academia Sinica, priority 2019, dated 2024).

As usually defined, the IC50 is the concentration needed to halve the response being measured.

Structures are written as SMILES. Like-named read-outs stand apart in the source and are kept apart here.

Test [1] has as its system KBvin. Briefly: Cell cytotoxicity assay (MTS), KBvin. The test is classed as cell-based, human. The method, then: (§1) Cells were seeded into the wells of 96-well plates (2000 cells/well). After an overnight culture, the cells were treated with different concentrations of a compound for 72 h. The CellTiter 96 AQueous one-solution cell proliferation assay (MTS) reagent was used to determine cytotoxicity. After treatment with a compound, 20 μL of the MTS reagent was added to each well and the plates were incubated at 37° C. for 1-4 h. Next, the absorbance at 490 nm of the culture medium in each well was determined using a VersaMax microplate reader (Molecular Devices).

Test [2] has as its system KBtax. Briefly: Cell cytotoxicity assay (MTS), KBtax. Format: cell-based, human. The method, then: as §1
The test system of test [3] is CEM/VBL. Briefly: Cell cytotoxicity assay (MTS), CEM/VBL. Format: cell-based, human. The method, then: as §1
The subject of test [4] is CCRF-CEM. Briefly: Cell cytotoxicity assay (MTS), CCRF-CEM. The test is classed as cell-based. The note with it: Homo sapiens. The method, then: as §1
For test [5], the system named is KB. Description: Cell cytotoxicity assay (MTS), KB. The following applies: Homo sapiens. Format: cell-based. The method, then: as §1
The test system of test [6] is H1975 cells. Briefly: Cell cytotoxicity assay (MTS), H1975. The test is classed as cell-based, human. The method, then:
as §1

Test [7] concerns MDA-MB-231. Briefly: Cell cytotoxicity assay (MTS), MDA-MB-231. The test is classed as cell-based. The note with it: Homo sapiens, MDA-MB-231, 72 h. The method, then: as §1
In test [8] the test system is human fibroblast (HFB) cells. Briefly: Cell cytotoxicity assay (MTS), human fibroblast. The following applies: normal cell line HFB. The test is classed as cell-based. The method, then: as §1
Setting [9] is: Homo sapiens, NCI-H1975, H1975 cells, cell-based SAR study, read-out: IC50.
Setting [10] is: Homo sapiens, NCI-H1975, Table 8, cell line not given, values match H1975, read-out: IC50.
The mark [11] stands for this setting: Homo sapiens, NCI-H1975, 72 h, H1975 cells, 72 h, MTS, read-out: IC50.

Regarding `C/C(=C\c1csc(C)n1)[C@@H]1C[C@@H]2O[C@]2(C)CCC[C@H](C)[C@H](O)[C@@H](C)C(=O)C(C)(C)[C@@H](O)CC(=O)N1` [Ixabepilone, ixabepilone], the IC50 stood at 193 ± 24.2 nM in test [1] (Homo sapiens, KBvin, P-gp overexpressing, vincristine-selected KB subline); 35 ± 0.71 nM in test [2] (Homo sapiens, KBtax, P-gp overexpressing, paclitaxel-selected KB subline); 150 ± 6.59 nM in test [3] (Homo sapiens, CEM/VBL, P-gp overexpressing, vinblastine-selected CCRF-CEM subline); 3 ± 0.06 nM in test [4]; 8 ± 0.37 nM in test [5]. In addition, the “RF, resistance factor (IC50 in resistant cell line/IC50 in parent cell line)” value in test [1] (KBvin vs KB) is on record as 24; in test [2] (KBtax vs KB) it was 4.3; in test [3] (CEM/VBL vs CCRF-CEM) it was 50.

With `O=C(O)c1ccc2[nH]c(-c3ccccc3)cc(=O)c2c1` [RJ-LC-15-1, 4-oxo-2-phenyl-1,4-dihydroquinoline-6-carboxylic Acid], the IC50 in test [6] (setting [9]) and in test [6] (setting [10]) was more than 5000 nM in each case.

Take `CCNC(=O)c1ccc2[nH]c(-c3ccccc3)cc(=O)c2c1` [RJ-LC-15-2, N-ethyl-4-oxo-2-phenyl-1,4-dihydroquinoline-6-carboxamide]: the half-maximal inhibitory concentration (IC50) came to 3700 nM in test [6] (setting [9]) and 3700 ± 730 nM in test [6] (setting [10]).

With `O=C(OCCOCCOCCOCCO)c1ccc2[nH]c(-c3ccccc3)cc(=O)c2c1` [RJ-LC-15-3, 2-(2-(2-(2-hydroxyethoxy)ethoxy)ethoxy)ethyl 4-oxo-2-phenyl-1,4-dihydro quinoline-6-carboxylate], the IC50 in test [6] (setting [10]) was 3300 ± 990 nM.

For `CCOC(=O)c1ccc2[nH]c(-c3ccc(OC)cc3)cc(=O)c2c1` [RJ-LC-15-4, Ethyl 2-(4-methoxyphenyl)-4-oxo-1,4-dihydroquinoline-6-carboxylate], the half-maximal inhibitory concentration (IC50) amounted to 2200 nM in test [6] (setting [9]) and 2200 ± 200 nM in test [6] (setting [10]).

`CCOC(=O)c1ccc2[nH]c(-c3ccc(F)cc3)cc(=O)c2c1` [RJ-LC-15-5, Ethyl 2-(4-fluorophenyl)-4-oxo-1,4-dihydroquinoline-6-carboxylate]: the figures for the half-maximal inhibitory concentration (IC50) in test [6] (setting [9]) and in test [6] (setting [10]) were 2100 nM and 2100 ± 210 nM, respectively.

Take `CCOC(=O)c1ccc2[nH]c(-c3ccc(Br)cc3)cc(=O)c2c1` [RJ-LC-15-6, Ethyl 2-(4-bromophenyl)-4-oxo-1,4-dihydroquinoline-6-carboxylate]: the IC50 in test [6] (setting [9]) was 4500 nM; in test [6] (setting [10]), 4500 ± 900 nM.

Take `CCOC(=O)c1ccc2[nH]c(-c3cccc(OC)c3)cc(=O)c2c1` [RJ-LC-15-7, Ethyl 2-(3-methoxyphenyl)-4-oxo-1,4-dihydroquinoline-6-carboxylate]: the IC50 in test [6] (setting [11]) is 44 nM; in test [6] (setting [10]), 44 ± 1 nM.

On to `CCOC(=O)c1ccc2[nH]c(-c3cccc(C(F)(F)F)c3)cc(=O)c2c1` [RJ-LC-15-9, Ethyl 4-oxo-2-(3-(trifluoromethyl)phenyl)-1,4-dihydroquinoline Carboxylate], for which the figures for the IC50 in test [6] (setting [11]) and in test [6] (setting [10]) were 780 nM and 780 ± 12 nM, respectively.

With `CCOC(=O)c1ccc2[nH]c(-c3ccc(O)cc3)cc(=O)c2c1` [RJ-LC-15-10, Ethyl 2-(4-hydroxyphenyl)-4-oxo-1,4-dihydroquinoline-6-carboxylate], the figures for the 50% inhibitory concentration (IC50) in test [6] (setting [11]) and in test [6] (setting [10]) were 475 nM and 475 ± 31 nM, respectively.

`CCOC(=O)c1ccc2[nH]c(-c3cccc(O)c3)cc(=O)c2c1` [RJ-LC-15-11, Ethyl 2-(3-hydroxyphenyl)-4-oxo-1,4-dihydroquinoline-6-carboxylate]: the half-maximal inhibitory concentration (IC50) amounted to 1950 nM in test [6] (setting [9]) and 1950 ± 200 nM in test [6] (setting [10]).

With `COC(=O)c1ccc2[nH]c(-c3ccccc3)cc(=O)c2c1` [RJ-LC-15-14, Methyl 4-oxo-2-phenyl-1,4-dihydroquinoline-6-carboxylate], the 50% inhibitory concentration (IC50) in test [6] (setting [11]) came to 207 nM; in test [6] (setting [10]) it was 207 ± 39 nM.

`CC(C)OC(=O)c1ccc2[nH]c(-c3ccccc3)cc(=O)c2c1` [RJ-LC-15-15, Isopropyl 4-oxo-2-phenyl-1,4-dihydroquinoline-6-carboxylate]: the values for the IC50 in test [6] (setting [11]) and in test [6] (setting [10]) were 48 nM and 48 ± 5 nM, respectively.

Turning to `CCOCc1ccc2[nH]c(-c3ccccc3)cc(=O)c2c1` [RJ-LC-15-16, 6-(ethoxymethyl)-2-phenylquinolin-4(1H)-one], the IC50 in test [6] (setting [11]) was 810 nM; in test [6] (setting [10]), 810 ± 120 nM.

In the case of `CCOC(=O)c1cccc2[nH]c(-c3ccccc3)cc(=O)c12` [RJ-LC-15-17, Ethyl 4-oxo-2-phenyl-1,4-dihydroquinoline-5-carboxylate], in test [6] (setting [10]), the IC50 is more than 10000 nM.

On to `CCOC(=O)c1ccc2c(=O)cc(-c3ccccc3)[nH]c2c1` [RJ-LC-15-18, Ethyl 4-oxo-2-phenyl-1,4-dihydroquinoline-7-carboxylate], for which the half-maximal inhibitory concentration (IC50) in test [6] (setting [10]) worked out at 97 ± 3 nM.

For `CCOC(=O)c1ccc2[nH]c(-c3ccccc3)cc(=O)c2c1` [RJ-LC-15-19, Ethyl 4-oxo-2-phenyl-1,4-dihydroquinoline-6-carboxylate Methane Sulfonate], the half-maximal inhibitory concentration (IC50) in test [6] (Table 8, cell line not given, values match H1975, read-out: IC50) stood at 69 ± 4 nM.

`CCOC(=O)c1ccc2[nH]c(-c3cccc(F)c3)cc(=O)c2c1` [RJ-LC-15-20, Ethyl 2-(3-fluorophenyl)-4-oxo-1,4-dihydroquinoline-6-carboxylate Methanesulfonate]: in test [6] (Table 8, cell line not given, values match H1975, Methanesulfonate, read-out: IC50), the 50% inhibitory concentration (IC50) turned out to be 42 ± 4 nM.

On to `O=C(O)c1ccc2[nH]c(-c3ccccc3)cc(=O)c2c1` [RJ-LC-15-21, Sodium 4-oxo-2-phenyl-1,4-dihydroquinoline-6-carboxylate], for which the 50% inhibitory concentration (IC50) in test [6] (Homo sapiens, NCI-H1975) was more than 10000 nM.

With `COC(=O)c1ccc2[nH]c(-c3cccc(F)c3)cc(=O)c2c1` [RJ-LC-15-22, Methyl 2-(3-fluorophenyl)-4-oxo-1,4-dihydroquinoline-6-carboxylate], the IC50 in test [6] (setting [10]) is 27 ± 6 nM.

Regarding `CC(C)OC(=O)c1ccc2[nH]c(-c3cccc(F)c3)cc(=O)c2c1` [RJ-LC-15-23, Isopropyl 2-(3-fluorophenyl)-4-oxo-1,4-dihydroquinoline-6-carboxylate], the IC50 in test [6] (setting [11]) was 6 ± 2.16 nM; in test [6] (setting [10]) it was 6 ± 2 nM; in test [7], 10 ± 0.5 nM; in test [8], more than 10000 nM.

With `O=C(Oc1ccccc1)c1ccc2[nH]c(-c3cccc(F)c3)cc(=O)c2c1` [RJ-LC-15-24, Phenyl 2-(3-fluorophenyl)-4-oxo-1,4-dihydroquinoline-6-carboxylate], the concentration for half-maximal inhibition (IC50) in test [6] (setting [10]) turned out to be 300 ± 8 nM.

As for `CCOC(=O)c1ccc2[nH]c(-c3cccc(Br)c3)cc(=O)c2c1` [RJ-LC-15-25, Ethyl 2-(3-bromophenyl)-4-oxo-1,4-dihydroquinoline-6-carboxylate], the IC50 in test [6] (setting [10]) worked out at 70 ± 19 nM.

As for `O=C(O)c1ccc2[nH]c(-c3cccc(F)c3)cc(=O)c2c1` [RJ-LC-15-26, 2-(3-fluorophenyl)-4-oxo-1,4-dihydroquinoline-6-carboxylic Acid], in test [6] (setting [10]), the concentration for half-maximal inhibition (IC50) is more than 10000 nM.

Take `CCNC(=O)c1ccc2[nH]c(-c3cccc(F)c3)cc(=O)c2c1` [RJ-LC-15-27, N-ethyl-2-(3-fluorophenyl)-4-oxo-1,4-dihydroquinoline-6-carboxamide]: the IC50 in test [6] (setting [10]) came out at 5600 ± 390 nM.
